Test results taken from patent US20070254019A1, “METHOD FOR TREATING BRAIN CANCER” (priority 2006, published 2007).

How the values were obtained:
[1] = Microdialysis study of tumor ECF disposition of CKD-602
Procedure: At all other microdialysis sample intervals, probe recovery was estimated using camptothecin as a tracer agent.
The HPLC system consisted of a Finnigan Specta Systems AS3000 autosampler and P4000 quarternary pump (Thermo Finnigan, Waltham, Mass.) with a Phenomenex Synergi Hydro-RP 80A (4 um, 100×2 mm) analytical column (Phenomenex, Torrance, Calif.). The isocratic mobile phase consisted of 0.1% formic acid in methanol:water (35:85, v/v) and was pumped at 0.2 mL/min. Injection volume was 10 pL and the run time was 10 min. […] The insert probe temperature was set at 400° C. with 3 kV ion spray voltage and 20 V orifice voltage. Nitrogen gas flow was fixed at 75 p.s.i. at the tank head unit. The system was operated with ThermoFinnigan Xcaliber software.

[2] = Plasma, tumor and tissue pharmacokinetic disposition of CKD-602 after single IV administration in mice bearing A375 tumors; assay type: in vivo
Excerpt: The objectives of the study were to evaluate the plasma, tumor, and tissue disposition of CKD-602 after a single intravenous (IV) administration of liposomes entrapped with CKD-602 and having an outer surface coating of methoxypolyethylene glycol (S-CKD602) and non-liposomal CKD-602 in female SCID mice bearing A375 human melanoma xenografts. New sample processing methods were developed to evaluate the encapsulated and released CKD-602 in plasma after administration of S-CKD602. Microdialysis methodology was used to evaluate the release of CKD-602 from S-CKD602 in tumor ECF.
Mice. All mice were handled in accordance with the Guide to the Care and Use of Laboratory Animals (National Research Council, 1996), and studies were approved by the Institutional Animal Care and Use Committee at the University of Pittsburgh Medical Center. Mice (female C.B-17 SCID,4-6 weeks of age, and specific pathogen free), were obtained from Taconic (Hudson, N.Y.), and were allowed to acclimate to the animal facilities at the University of Pittsburgh for 1 week prior to initiation of study. Mice were housed in microisolator cages and allowed ISDPRO autoclavable rodent chow (PMI Nutrition International, Inc., Brentwood, Mo.) and mice received water ad libitum. Body weights and tumor size were measured twice weekly and clinical observations were made twice daily.
Tumor Lines. A375 human melanoma xenografts were obtained from the DCTD Tumor Repository (Fredrick, Md.) and were mouse antigen production test-negative. A375 tumors were expanded in culture and injected (1×10^7 cells/mouse) subcutaneously into passage mice. The A375 tumors were harvested when they were 1 to 2 g and were implanted as approximately 25-mg fragments subcutaneously on the fight flank of SCID mice by aseptic techniques. […] Pharmacokinetic and microdialysis studies were performed when the tumors were approximately 1000 to 1500 mm^3 (1 to 1.5 g) in size.
Formulation and Administration. S-CKD602 is a pegylated liposomal formulation of CKD-602. The clinical formulation of S-CKD602 was used in this study (Alza Corp., Mountain View Calif.) (Zamboni et al., Final results of a phase I and pharmacokinetic study of STEALTH liposomal CKD-602 (S-CKD602) in subjects with advanced solid tumors. Proceedings of ASCO […];82s:2006). Approximately 80% of the lipid in S-CKD602 liposome is fully hydrogenated soy phosphatidylcholine and cholesterol. In addition, methoxypolyethylene glycol is covalently bound to phosphatidylethanolamine and a component of the lipid bilayer. The mean particle size of the S-CKD602 was approximately 110 nm. CKD-602 is encapsulated in the core of the liposome with an encapsulation efficiency of greater than 90%. The drug-to-lipid ratio of S-CKD602 is approximately […] CKD-602 per milligram of lipid. In the S-CKD602 formulation, the CKD-602 concentration was 0.1 mg/mL. The doses of S-CKD602 refer to actual doses of CKD-602. S-CKD602 was administered at 1 mg/kg IV push via a tail vein over approximately 1 min. This dose is one-half the maximum tolerated dose (MTD) in mice. The dose of S-CKD602 administered was based on the maximum volume of drug allowed to be administered IV by the study's IACUC.
Non-liposomal CKD602 was administered at 30 mg/kg IV push via the tail vein. This dose is approximately the MTD for a single dose of non-liposomal CKD-602 in mice. Non-liposomal CKD-602 was prepared at 3 mg/mL in 270 mM mannitol and 0.4 mM tartaric acid in a 5% dextrose solution at pH 3.6. The vehicle control for S-CKD602 and non-liposomal CKD-602 was 0.9% NaCI and 270 mM mannitol and 0.4 mM tartaric acid in a 5% dextrose solution at pH 3.6, respectively.
Pharmacokinetic Studies. Due to limited sample volume, the pharmacokinetic and microdialysis studies were performed in separate groups of mice. Pharmacokinetic studies of S-CKD602 were performed after administration of vehicle, and at 5 min, 0.25, 0.5, 1, 2, 4, 7, 16, 24, 48, and 72 h after administration. […]

[3] = mice; IV push
[4] = tumor ECF by microdialysis, S-CKD602 (1 mg/kg), Non-Liposomal CKD-602 (30 mg/kg) IV
[5] = brain, single IV dose (S-CKD602 1 mg/kg; non-liposomal 30 mg/kg)
[6] = fat, single IV dose (S-CKD602 1 mg/kg; non-liposomal 30 mg/kg)
[7] = kidney, single IV dose (S-CKD602 1 mg/kg; non-liposomal 30 mg/kg)
[8] = liver, single IV dose (S-CKD602 1 mg/kg; non-liposomal 30 mg/kg)
[9] = muscle, single IV dose (S-CKD602 1 mg/kg; non-liposomal 30 mg/kg)
[10] = plasma, single IV dose (S-CKD602 1 mg/kg; non-liposomal 30 mg/kg)
[11] = spleen, single IV dose (S-CKD602 1 mg/kg; non-liposomal 30 mg/kg)
[12] = tumor, single IV dose (S-CKD602 1 mg/kg; non-liposomal 30 mg/kg)

For CC[C@@]1(O)C(=O)OCc2c1cc1n(c2=O)Cc2c-1nc1ccccc1c2CCNC(C)C [Non-Liposomal CKD-602], the “CKD-602 in tumor ECF detectable until” value ([1]; detectable from 10 min, microdialysis) was 19.25 h, the “variation of CKD-602 concentration in tumor ECF at individual time points” value ([1]; during the collection intervals) was 4- to 5 fold and the “Time >1 ng/mL In Tumor ECF” value [1, 4] was “˜20 h”. For the same molecule, the “Tumor ECF AUC(0-inf)” value [1, 4] was 639 ng·h/mL, the “AUC, sum total CKD-602, Brain” value [2, 5] was 849 ng·h/mL and the “Cmax, sum total CKD-602, Brain” value [2, 5] was 572 ng/mL. For the same molecule, the “Tlast, sum total CKD-602, Brain” value [2, 5] was 7 h, the “Tmax, sum total CKD-602, Brain” value [2, 5] was 4.8 min and the “Cmax, sum total CKD-602, Fat” value [2, 6] was 7,321 ng/mL. The “Tlast, sum total CKD-602, Fat” value [2, 6] was 24 h, the “Tmax, sum total CKD-602, Fat” value [2, 6] was 15 min and the “AUC, sum total CKD-602, Kidney” value [2, 7] was 56,267 ng/mL · h. For the same molecule, the “Cmax, sum total CKD-602, Kidney” value [2, 7] was 68,497 ng/mL, the “Tlast, sum total CKD-602, Kidney” value [2, 7] was 24 h and the “Tmax, sum total CKD-602, Kidney” value [2, 7] was 4.8 min. For the same molecule, the “AUC, sum total CKD-602, Liver” value [2, 8] was 68,620 ng/mL · h, the “Cmax, sum total CKD-602, Liver” value [2, 8] was 69,000 ng/mL and the “Tlast, sum total CKD-602, Liver” value [2, 8] was 16 h. The “Tmax, sum total CKD-602, Liver” value [2, 8] was 240 min, the “Cmax, sum total CKD-602, Muscle” value [2, 9] was 12,383 ng/mL and the “Tlast, sum total CKD-602, Muscle” value [2, 9] was 24 h. The “Tmax, sum total CKD-602, Muscle” value [2, 9] was 4.8 min, the “overall distribution in muscle compared with fat” value ([2]; non-liposomal CKD-602 30 mg/kg IV, muscle vs fat) was 3 fold and the “AUC, sum total CKD-602, Fat” value ([2]; peritoneal cavity fat, single IV dose (S-CKD602 1 mg/kg; non-liposomal 30 mg/kg)) was 8,280 ng/mL · h. For the same molecule, the “Plasma Sum Total AUC(0-inf)” value ([2]; plasma, S-CKD602 (1 mg/kg), Non-Liposomal CKD-602 (30 mg/kg) IV) was 9,117 ng/mL · h, the “Tlast, sum total CKD-602, Plasma” value ([2]; plasma, last detectable time, single IV dose (S-CKD602 1 mg/kg; non-liposomal 30 mg/kg)) was 16 h and the “Cmax, sum total CKD-602, Plasma” value [2, 10] was 6,959 ng/mL. The “Tmax, sum total CKD-602, Plasma” value [2, 10] was 4.8 min, the “Tmax, sum total CKD-602, Plasma” value ([2]; plasma, single IV dose (S-CKD602 1 mg/kg; non-liposomal 30 mg/kg), listed as non-liposomal CKD-602) was 4.98 min and the “AUC, sum total CKD-602, Plasma” value ([2]; plasma, single IV dose (S-CKD602 1 mg/kg; non-liposomal CKD-602 30 mg/kg)) was 9,117 ng/mL · h. For the same molecule, the “AUC, sum total CKD-602, Muscle” value ([2]; skeletal muscle, single IV dose (S-CKD602 1 mg/kg; non-liposomal 30 mg/kg)) was 24,485 ng/mL · h, the “AUC, sum total CKD-602, Spleen” value [2, 11] was 23,124 ng/mL · h and the “Cmax, sum total CKD-602, Spleen” value [2, 11] was 14,724 ng/mL. For the same molecule, the “Tlast, sum total CKD-602, Spleen” value [2, 11] was 24 h, the “Tmax, sum total CKD-602, Spleen” value [2, 11] was 15 min and the “tissues with the highest exposures of CKD-602” value ([2]; sum total CKD-602 in tissues) was “liver and kidney”. For the same molecule, the “Tumor Sum Total(0-inf)” value ([2]; tumor homogenate AUC, S-CKD602 (1 mg/kg), Non-Liposomal CKD-602 (30 mg/kg) IV) was 11,661 ng/mL · h, the “Cmax, sum total CKD-602, Tumor” value [2, 12] was 3,688 ng/mL and the “Tlast, sum total CKD-602, Tumor” value [2, 12] was 24 h. The “Tmax, sum total CKD-602, Tumor” value [2, 12] was 30 min and the “MTD for a single dose” value [3] was ~30 mg/kg.
